Experimental data taken from patent US20200016231A1, “BIOFILM DISRUPTING COMPOSITION” (Whiteley Corporation Pty Ltd, priority 2016, published 2020).
Read-outs that look alike come from different tables or passages of the source.

Test system: Streptococcus pyogenes
Test: Biofilm viability, resazurin assay, Streptococcus pyogenes clinical isolates
Assay type: cell-based
Settings: read-out: % bacterial viability; for viability at 10000 µM: GSH 10 mM; for viability at 15000 µM: GSH 15 mM; for viability at 30000 µM: GSH 30 mM
Experimental: Bacterial isolates were grown in Tryptone Soya Broth (TSB) medium for 24 hours at 37° C., in a shaking incubator set at 150 rpm. After this time the organisms were harvested by centrifugation (5000×g, 5 min at 10° C.). After centrifugation, the supernatant liquid was removed and the bacterial pellet was suspended in 1×Phosphate Buffered Saline (PBS). To initiate biofilm growth, the bacterial suspension from PBS was immediately re-suspended in TSB and 250 μL of bacterial cell suspension (OD600=0.5±0.05) were added into the wells of 96-well plates (Corning Corp. USA) and incubated at 37° C. for 48 h at 150 r.p.m.
After 24 h, treated biofilms supernatant were replaced with 200 μL of 1×PBS, followed by addition of 15 μL of a 0.05% w/v solution of resazurin (Sigma-Aldrich), and incubated further at 37° C., 150 r.p.m.
After a further 24 h, the fluorescent intensity of the biofilm was determined at Ex544 nm and Em590 nm (Tecan infinite M1000 pro microplate reader). Results are plotted as percentage (%) of bacterial vaiability calculated based on fluorescent intensity. Control or untreated bacterial biofilm fluorescent intensity always considered as 100% bacterial viability and % viability under rest of treatment conditions were calculated with reference to control.
It should be noted that the Resazurin assay works by recording fluorescence intensity and depends upon two factors (total number of bacteria and total number of viable bacteria in a given biofilm sample).
The treatments shown in column 1 of Table 10 were tested against three clinical isolates of Enterobacter species. The treatments used are given in column 1, and the % bacterial viability for each strain tested are given in the subsequent columns (see also FIG. 9).

N[C@@H](CCC(=O)N[C@@H](CS)C(=O)NCC(=O)O)C(=O)O [GSH, glutathione]
viability at 10000 µM (361194 Left leg boil): 55.6% | viability at 15000 µM (361194 Left leg boil): 35.8% | viability at 30000 µM (361194 Left leg boil): 4.3% | viability at 10000 µM (371982 Skin Wound): 99.8% | viability at 15000 µM (371982 Skin Wound): 90.2% | viability at 30000 µM (371982 Skin Wound): 15.4% | viability at 10000 µM (386596 Head Wound): 67.7% | viability at 15000 µM (386596 Head Wound): 42.7% | viability at 30000 µM (386596 Head Wound): 22.3%
